Source: patent US4691018A, “Pyridine derivatives and their use as anti-allergic agents” (Chugai Seiyaku Kabushiki Kaisha, priority 1985, dated 1987)

What was measured:
IgE antibody = test: Inhibitory effect on production of IgE antibody, oral, X-ray exposed mice immunized with DNP-KLH; assay type: in vivo, mouse (SJL/J strain); details: mouse
Description: Inhibitory effect on production of IgE antibody SJL/J strain mice (8-week-old) were exposed to X-rays of 400 R, and concurrently injected intraperitoneally a mixture of 1 μg of Keyhole Limpet Hemocyanin (KLH) with 4 mg of an aluminum hydroxide gel. One week later, the mice were intraperitoneally administered with a mixture of 1 μg of dinitrophenyl group-binding KLH (DNP-KLH) with 4 mg of an aluminum hydroxide gel. From the next day of the immunization with DNP-KLH, each of the mice was forced to be orally administered by using gastric catherter with a test compound suspended in a 1% gum arabic aqueous solution. The mice in a control group were administered with only the gum arabic solution.
The serum was sampled from each of the mice treated above, and the amount of IgE therein was measured by the "Rat 48-hour PCA test" similarly as described in Experiment 1. The amount of IgE was expressed in terms of the maximum dilution of the serum by which a cutaneous reaction appeared in an area with a diameter of 5 mm or more to be observed.
The percent inhibition was indicated as the ratio of the amount of IgE of the test group to that of the control group.
In Table 2, inhibition efficiencies of 25-50%, 50-75% and 75% or more are represented by ratings ++, +++ and ++++, respectively. The numbers given to the test compounds correspond to the Example Nos.

[1] = system: passive cutaneous anaphylaxis (PCA); test: Inhibitory effect on passive cutaneous anaphylaxis (PCA), oral; assay type: in vivo, rat (SD/JCL strain); details: rat
Description: Rat antiserum to egg albumin was prepared by the method of I. Mota, "Immunology" 7, 681-699 (1964), and 400 folds diluted. The diluted antiserum (0.1 ml) was injected into dorsal skin of rats (SD/JCL strain, male, 9-week-old) to subject them to passive immunization.
Forty-eight to seventy-two hours later, each rat was orally given a compound of this invention suspended in a 1% gum arabic aqueous solution. Five minutes after the administration, each rat was intravenously injected at its tail with 1 ml of a mixture containing equal volumes of a 0.5% solution of egg albumin in saline and 0.5% solution of Evans Blue in saline. Thirty minutes later, each rat was beheaded and the extravasated dye was quantitatively measured by the method of Katayama et al., "Microbiol. Immunol" 22, 89-101 (1978).
The percent inhibition was calculated by comparing the amount of Evans Blue leaking in the test groups with that in the control group in which a gum arabic aqueous solution containing no test compound was administered to the test animal.
In Table 1, inhibition efficiencies of 30 to 50%, 51-70%, 71-90% and 91% or more are represented by the ratings +, ++, +++ and ++++, respectively. The numbers given to the test compounds correspond to the Example Nos.

Row | Structure (SMILES) | Percent Inhibition (IgE antibody; dose 5 mg/kg) | Percent Inhibition ([1]; dose 10 mg/kg) | also measured
1 | CCOC(=O)c1cc(C(=O)NC)nc(C(=O)NC)c1 [Compound 1, ethyl 2,6-bis(N-methylcarbamoyl)pyridine-4-carboxylate] | ++++ (75% or more) |  | Percent Inhibition ([1]; dose 5 mg/kg): ++++ (91% or more)
2 | CNC(=O)c1cc(C(=O)O)cc(C(=O)NC)n1 [Compound 2, 2,6-bis(N-methylcarbamoyl)pyridine-4-carboxylic acid] |  |  | Percent Inhibition (IgE antibody; dose 50 mg/kg): ++++ (75% or more); Percent Inhibition ([1]; dose 50 mg/kg): + (30 to 50%)
3 | CCCOC(=O)c1cc(C(=O)NC)nc(C(=O)NC)c1 [Compound 4] |  | ++ (51-70%) | 
4 | CNC(=O)c1cc(C(=O)OC(C)C)cc(C(=O)NC)n1 [Compound 5] | +++ (50-75%) |  | 
5 | CNC(=O)c1cc(C(=O)OCCOC)cc(C(=O)NC)n1 [Compound 7] |  | ++ (51-70%) | 
6 | CNC(=O)c1cc(C(=O)OCCO)cc(C(=O)NC)n1 [Compound 8, 2-hydroxyethyl 2,6-bis(N-methylcarbamoyl)pyridine-4-carboxylate] | ++ (25-50%) | ++ (51-70%) | 
7 | CCOC(=O)c1cc(C(=O)NC)nc(C(=O)NC)c1N [Compound 10, ethyl 3-amino-2,6-bis(N-methylcarbamoyl)pyridine-4-carboxylate] |  | +++ (71-90%) | Percent Inhibition (IgE antibody; dose 10 mg/kg): ++++ (75% or more)
8 | CCOC(=O)c1cc(C(=O)NC)nc(C(=O)NC)c1NC [Compound 11, ethyl 3-methylamino-2,6-bis(N-methylcarbamoyl)pyridine-4-carboxylate] | ++++ (75% or more) | ++++ (91% or more) | 
